Earlier results as cited in patent US9744192B2, “Methods of treating chronic rhinosinusitis” (priority 2015, dated 2017).
Read-outs that look alike come from different tables or passages of the source.

Assays:
[1] = system: Saccharomyces cerevisiae cells; details: living cells
[2] = aqueous solution, pH=7.4
[3] = system: 17 bacterial strains including Staphylococcus aureus, Enterococcus faecalis, E. coli, Klebsiella pneumonia and others; details: 2.5% boric acid
[4] = system: Bacillus shiga-kruse (aka: Shigella dysenteriae); details: 2-3% aqueous boric acid, agar culture
[5] = system: Candida albicans; details: for strains with complete growth inhibition: 1% aqueous boric acid
[6] = system: 17 bacteria and fungi (human pathogens)

OB(O)O [boric acid, Boric acid]
effect on cell morphology [1]: alter the morphology | borate B(OH)4− share of equilibrium [2]: 1.6% | free boric acid B(OH)3 share of equilibrium [2]: 98.4% | tissue irritation or other adverse events (in vivo): little or no evidence | absorption across uninjured skin or vaginal epithelium (topical): not significantly absorbed | bacterial strains with complete growth inhibition [3]: 17 of 17 | agglutination [4]: marked agglutination | strains with complete growth inhibition ([5]; fluconazole-resistant strains): 24 of the 25 | strains with complete growth inhibition ([5]; fluconazole-susceptible strains): 45 of the 46 | sudden physical membrane damage ([5]; 1% boric acid): No sign of sudden physical membrane damage | membrane integrity ([5]; 24 hour exposure to 1% boric acid): decreased only slightly | integrity of initial bacterial or fungal counts ([6]; boric acid 1.8-2%, urine samples, up to 24 hours at 24° C.): maintained for all human pathogens studied | reversibility of the bacteriostatic effect after dilution into nutrient culture media ([6]; preserved samples diluted out): rapid and complete reversibility
